From patent US20210130769A1, “Method for Single Cell Encapsulation via Metabolic Glycoengineering and Copper-Free Click Chemistry” (The Board of Trustees Of the Leland Stanford Junior …, priority 2019, published 2021)
Entries after “also recorded” stand apart in the source; their conditions may differ.

Test system: actin polymerization
Assay: Inhibition study: actin polymerization inhibitor/activator, VEGFB ELISA
Assay type: cell-based, human
Conditions: 24 hr
Protocol: After cell encapsulation with two different molecular weight polymers such as 5 kDa and 30 kDa, the cells were rinsed and resuspended in the media containing actin polymerization inhibitor (Cytochalastin D (CytoD): 2 μM) and activator (lysophosphatidic (LPA): […] After the incubation for 24 hr with different pharmacological chemicals, the supernatants from different treatment groups were collected to measure VEGFB production from the cells using ELISAs as above.

## lysophosphatidic acid [LPA]
LPA
  VEGFB production in 30 kDa encapsulated NPCs: significantly different from other groups; also recorded: decreased production of VEGFB

## C=C1[C@@H](C)[C@H]2[C@H](Cc3ccccc3)NC(=O)[C@]23[C@H](OC(C)=O)/C=C/[C@@](C)(O)C(=O)[C@@H](C)C/C=C/[C@H]3[C@@H]1O [CytoD, Cytochalastin D]
2 μM CytoD
  VEGFB concentration in NPCs coated with 30 kDa PEG: not significantly different
  VEGFB production in NPCs coated with 5 kDa PEG: significantly different from other groups; also recorded: increased VEGFB production
